Patent US6673940B1, “Compositions and methods relating to cyclic compounds that undergo nucleotide base pair-specific interactions with double-stranded nucleic acids” (California Institute of Technology, priority 1999, dated 2004)

Key:
[1] = test system: 5′-AGTACT-3′ site on 229 bp restriction fragment of pJT8; test: Quantitative DNase I footprint titration, 5′-AGTACT-3′ site; format: binding; conditions: for equilibrium association constant Ka at 5′-AGTACT-3′: 10 mM Tris•HCl, 10 mM KCl, 10 mM MgCl2, 5 mM CaCl2, pH 7.0, 22° C., match site for (3), single base pair mis-match for (4)
Procedure: (§1) FIGS. 8A and 8B depict the results quantitative DNase I footprint titration experiments with (a) cyclo-(Γ-Im-Py-Py-Py-(R)^H^2^Nγ-Im-Py-Py-Py) (3) and (b) cyclo-(γ-Im-Py-Py-Py(R)^H^2^Nγ-Py-Py-Py-Py) (4) on the 3′-end labeled 229-bp restriction fragment of pJT8. Lane 1, intact DNA control; lane 2, A reaction; lane 3, DNase I standard, lanes 4-13, 5 pM, 10 pM, 20 pM, 50 pM, 100 pM, 1 nM, 2 nM, 5 nM, and 10 nM of the respective polyamide. The 5′-AGTACT-3′ and 5′-AGTATT-3′ match and mis-match sites for each polyamide were analyzed and are shown on the right side of the respective autoradiograms. All reactions contained 20 kcpm of radiolabeled restriction fragment, 10 mM Tris•HCI (pH 7.0), 10 mM KC1, 10 mM MgCl2, and 5 mM CaCl2.
(§2) As controls, the binding affinities and sequence specificities of the Im-Py-Py-Py-β-Dp (1) unlinked 2:1 dimer and a hairpin analog 1m-Py-Py-Py-(R)^H,Nγ-Im-Py-Py-Py-C3-OH (2) were also studied. An EDTA analogue, cyclo-(γ-Im-Py-Py-Py-(R)^EDTA-FE(II)γ-Py-Py-Py-Py-) (4-E•Fe(II)) was constructed to confirm the binding orientation of cyclic polyamide (4) at its 5′-AGTATT-3′ match and 5′-AGTACT-3′ single base pair mismatch site. All polyamides were synthesized by solid phase methods (see Baird, et al., J. Am. Chem. Soc., vol. 118:6141 (1996), and U.S. Ser. No. 08/607,078 for a description of solid phase synthesis methods for non-cyclic polyamides). Polyamide purity and identity was confirmed by H NMR, MALDI-TOF MS, and analytical HPLC. Precise binding site sizes were determined by MPE•Fe(II) footprinting (see Van Dyke, et al., Proc. Natl. Acad. Sci. U.S.A., vol. 79:5470 (1982), and Van Dyke and Dervan, Science, vol. 225:1122 (1984)), and binding orientation and stoichiometry confirmed by affinity cleaving experiments. See Taylor, et al., Tetrahedron, vol.40:457 (1984), and Dervan, P. B., Science, vol. 232:464 (1986). Equilibrium association constants (Ka) of the polyamides for their respective match and mis-match binding sites were determined by quantitative DNase I footprint titration, as described by Brenowitz, et al., Methods Enzymol., vol. 130:132 (1986), Brenowitz, et al., Proc. Natl. Acad. Sci. U.S.A., vol 83:8462 (1986), and Senear, et al., Biochemistry, vol. 25:7344 (1986).
Quantitative DNase I footprint titrations (10 mm Tris•HCI, 10 mM KCl, 10 MM MgCl2 and 5 mM CaCl2 pH 7.0 and 22° C.) were performed to determine the equilibrium association constants (Ka) of Im-Py-Py-Py-β-Dp (1), Im-Py-Py-Py-(R)^H,NγIm-Py-Py-Py-OH (2), cyclo-(γ-Im-Py-Py-Py-(R)^H,Nγ-Im-Py-Py-Py) (3), and cyclo-(γ-Im-Py-Py-Py-(R)^H,Nγ-Py-Py-Py-Py-) (4) for the 6 bp match and mis-match sites. The results for (3) and (4) are depicted in FIG. 8.

[2] = test system: 5′-TGTTA-3′ dsDNA target sequence; conditions: Cho et al. 1995; cited from earlier work
[3] = test system: 229 base pair DNA restriction fragment from the plasmid pJT8 (5′-AGTATT-3′ and 5′-AGTACT-3′ sites); test: Affinity cleavage experiments; format: binding; conditions: 100 nM; 20 mM HEPES pH 7.3, 200 mM NaCl, 1 μM Fe(II), 22° C.
Procedure: FIGS. 6A and 6B show the results of affinity cleaving experiments using cyclo-(γ-Im-Py-Py-Py-(R)^EDTA-Fe(II)γ-Py-Py-Py-Py) (4-E•Fe(II)) on the (a) 3′- and (b) 5′-^32P-labeled 229 bp restriction fragment of pJT8. The match and single mis-match sites 5′-AGTATT-3′ and 5′-AGTACT-3′ are shown on the right side of the autoradiograms. The lanes of each gel are described as follows lane 1, intact DNA (control); lane 2, A reaction; lanes 3-7, 100 pM, 1 nM, 10 nM, and 100 nM, and 1 μM polyamide, respectively. All lanes contain 15 kcpm of either 3′- or 5′-radiolabeled DNA, 20 mM HEPES buffer (pH 7.3), 200 mM NaCl, 50 μg/ml glycogen, 5 mM DTT, 1 μM Fe(II), pH 7.0, and were run at 22° C.
FIGS. 7A-7C illustrate the synthesis of cyclo-(γ-Im-Py-Py-Py(R)^EDTA•Fe(II)γPy-Py-Py-Py) (4-E•Fe(II)) from cyclo-(γ-Im-Py-Py-Py-(R)^H2^Nγ-Py-Py-Py-Py) (4) by: (i) EDTA dianhydride (DMSO/NMP, DIEA, 55° C., 15 min); (ii) 0.1 M NaOH (55° C., 10 min). […] Bar heights are proportional to the relative cleavage intensities at each base pair. Shaded and non-shaded circles denote Im and Py carboxamides, respectively. The boxed Fe denotes the EDTA•Fe(II) cleavage moiety. […]

[4] = test system: 229 base pair restriction fragment of pJT8 (5′-AGTACT-3′ and 5′-AGTATT-3′ sites); test: MPE•Fe(II) footprinting; format: binding; conditions: 25 mM HEPES pH 7.3, 200 mM NaCl, 22°; for MPE•Fe(II) footprinting: binding at match site: 10 nM polyamide
Procedure: FIG. 5 illustrates the 229 bp restriction fragment with the relative positions of the match and single base pair mis-match sequences indicated for two 8-ring cyclic polyamides, cyclo-(γ-Im-Py-Py-Py-(R)^H2^Nγ-Im-Py-Py-Py) (3) and cyclo-(γ-Im-Py-Py-Py-(R)^H2^Nγ-Py-Py-Py-Py) (4). MPE•Fe(II) protection patterns of 10 nM cyclo-(γ-Im-Py-Py-Py-(R)^H2^Nγ-Im-Py-Py-Py) (3) and 10 nM cyclo-(γ-Im-Py-Py-Py-(R)^H2^Nγ-Py-Py-Py-Py) (4) are shown by the bar graphs. Bar heights are proportional to the relative protection from cleavage at each base pair. Binding sites determined by MPE•Fe(II) footprinting and quantitated by DNase I footprint titrations are boxed. Autoradiograms of MPE•Fe(II) footprinting experiments using cyclo-(γ-Im-Py-Py-Py-(R)^H^2^Nγ-Im-Py-Py-Py) (3) (left) and cyclo-(γ-Im-Py-Py-Py-(R)^H^2^Nγ-Py-Py-Py-Py) (4) (right) on the 3′ ^32P-labeled 229 bp restriction fragment of pJT8. 5′-AGTATT-3′ and 5′-AGTACT-3′ sites are shown adjacent to the auto radiograms. Lane 1, intact control; lane 2, MPE•Fe(II) reaction; lane 3, A reaction standard; lanes 4-8: 100 pM; 1 nM; 10 nM; 100 nM; and […] polyamide, respectively. All lanes contain 15 kcpm of either 3′ or 5′-radiolabeled DNA, 25 mM HEPES buffer (pH 7.3), 200 mM NaCl, […] glycogen, 5 mM DTT, 0.5 mM MPE•Fe(II), and were run at 22° C.
as §2, with “25:7344 (1986). […]” for “25:7344 (1986).”

[5] = test system: 5′-AGTATT-3′ site on 229 bp restriction fragment of pJT8; test: Quantitative DNase I footprint titration, 5′-AGTATT-3′ site; format: binding; conditions: for equilibrium association constant Ka at 5′-AGTATT-3′: 10 mM Tris•HCl, 10 mM KCl, 10 mM MgCl2, 5 mM CaCl2, pH 7.0, 22° C., match site for (4), single base pair mis-match for (3)
Procedure: as §1
as §2, with “130:132 (1986), Brenowitz, et al., Proc. Natl. Acad. Sci. U.S.A., vol 83:8462 (1986), and Senear, et al., Biochemistry, vol. 25:7344 (1986).” left out

Substance	increase in dsDNA binding affinity relative to unlinked, dimeric polyamide (1) ([1]; 5′-AGTACT-3′ match site)	specificity for match sequence versus single base pair mismatch sites [2]	equilibrium association constant Ka at 5′-AGTACT-3′ [1]	MPE•Fe(II) footprinting: binding at match site [4]	MPE•Fe(II) footprinting: binding at single base pair mismatch site [4]	equilibrium association constant Ka at 5′-AGTATT-3′ [5]	also measured
Im-Py-Py-Py-(R)^H2Nγ-Im-Py-Py-Py-OH [polyamide 2, reference compound]	428 fold						lower affinity than previously described hairpin Im-Py-Py-Py-γ-Im-Py-Py-Py-β-Dp [1]: 4 fold; lower sequence specificity than previously described hairpin Im-Py-Py-Py-γ-Im-Py-Py-Py-β-Dp [1]: 5
Im-Py-Py-γ-Py-Py-Py-Dp		20 fold					
cyclo-(Im-Py-Py-γ-Py-Py-Py-γ)		4-17 fold					concentration at which the five base pair target 5′-TGTTA-3′ is bound [2]: subnanomolar; higher affinity relative to hairpin analog Im-Py-Py-γ-Py-Py-Py-Dp [2]: 40 fold
cyclo-(γ-Im-Py-Py-Py-(R)^EDTA•Fe(II)γ-Py-Py-Py-Py-) [4-E•Fe(II)]							affinity cleavage pattern at 5′-AGTACT-3′ single base pair mis-match site [3]: minor cleavage loci located 3′ and 5′ adjacent to the single base pair mis-match 5′-AGTACT-3′ site; affinity cleavage pattern at 5′-AGTATT-3′ match site [3]: major cleavage locus proximal to the 3′ side of the 5′-AGTATT-3′ match sequence
cyclo-(γ-Im-Py-Py-Py-(R)^H2Nγ-Im-Py-Py-Py) [polyamide 3]	3,600 fold		7.6e+10 M⁻¹	bound to its designated 6 bp match sites	detected only at much higher polyamide concentrations	1.3e+09 M⁻¹	affinity enhancement relative to hairpin polyamide (2) ([1]; 5′-AGTACT-3′ match site): 8 fold; specificity for match 5′-AGTACT-3′ over single base pair mis-match 5′-AGTATT-3′ ([1]; ratio of Ka values): 55 fold
cyclo-(γ-Im-Py-Py-Py-(R)^H2Nγ-Py-Py-Py-Py) [polyamide 4]			4.2e+08 M⁻¹	bound to its designated 6 bp match sites	protected its targeted match site 5′-AGTATT-3′ and the single base pair mismatch site 5′-AGTACT-3′	3.1e+09 M⁻¹	preference for match 5′-AGTATT-3′ versus single base pair mis-match 5′-AGTACT-3′ ([5]; ratio of Ka values): 7 fold
